In patent US7320980B2, “Substituted pyrido(1,2-a)pyrimidines and their use as NOS inhibitors” (Gruenenthal GmbH, priority 2003, dated 2008):
Where a name gives a salt, the structure may show the parent alone.

How the values were obtained:
NO synthase = target: T1, NO synthase (Rattus norvegicus, UniProt P29476); test: NOS / HTS-NOS assay (radioactive arginine conversion, rat cerebellum enzyme preparation); format: biochemical; conditions: rat cerebellum supernatant enzyme, [3H]-arginine substrate, 25° C.; read-out: NOS Arg IC50
T1 construct: the supernatant was then decanted off and frozen in portions at −80° C., discarding the precipitate; from tissue; host or cells: rat cerebellum, 20,000 g supernatant of homogenate
Source text: This assay makes it possible to determine the percentage inhibition of NO synthase (hereinafter referred to as the enzyme) by a compound of the general formula II used according to the invention, optionally in the form of one of the pure stereoisomers thereof, in particular enantiomers or diastereomers, the racemates thereof or in the form of a mixture of stereoisomers, in particular the enantiomers or diastereomers, in any desired mixing ratio, or in each case in the form of the free base thereof or in the form of the physiologically acceptable salt thereof, in particular hydroperchlorate salt or in each case in the form of the solvate thereof, in particular hydrate (hereinafter referred to as the active ingredient), by measuring enzyme activity on exposure to the compound. The enzyme is here mixed under suitable conditions together with radioactively labelled arginine and the particular active ingredient. After termination of the NO formation reaction at a predetermined time, the quantity of unconverted arginine is directly or indirectly determined.
This assay may be carried out at follows: • (a) Incubation of the enzyme with labelled arginine as the substrate in a reaction vessel, • (b) Separation of the labelled arginine from the labelled citrulline optionally arising as a product of the enzymatic reaction at a time at which the concentration of citrulline is rising, • (c) Measurement of the quantity of arginine separated in each case.
Separation is performed by means of a filter plate membrane.
Radioactive arginine is used as the substrate in this HTS-NOS assay. Depending on the type of microtitre plate (MTP), the assay volume may be selected in the range between 25 μl and 250 μl. Depending on the enzyme source used, cofactors and coenzymes are added. The batches are incubated in this microtitre plate (assay MTP) according to step (a) at room temperature and, depending on the enzyme activity used (units), lasts between 5 and 60 minutes. On completion of incubation (step (a)), the plate is placed in a cell harvester, which is equipped with an MTP which has a cation exchange membrane as a filter bottom (filter MTP). All the batches from the assay MTP are transferred into this filter MTP and suction filtered through a cation exchange filter plate, a paper filter loaded with phosphate groups. The filter MTP is then washed with buffer or water. This procedure binds the remaining substrate arginine onto the cation exchanger, while the enzymatically formed radioactive citrulline is quantitatively eluted. Once the filter MTP has been dried and scintillation liquid (Ready Protein, Beckmann Coulter GmbH, Krefeld, Germany) added, the bound arginine can be counted in the scintillation counter (Packard TRI-CARB Liquid Scintillation Analyzer 2000 CA, Packard Instrument, Meriden, Conn. 06450, USA). Low radioactivity indicates an uninhibited enzyme reaction. An inhibited enzyme reaction means that the radioactive arginine has not been converted. It may be concluded from this that there is then a high level of radioactivity on the filter.
The NOS and HTS-NOS assays were performed as described above.
Rat cerebella were used as the starting tissue. The animals were stunned and killed, the brain tissue, the cerebellum, was dissected out, 1 ml of enzyme preparation buffer (4° C.) was added per cerebellum, and the tissue was disrupted for 1 min at 6000 rpm in a Polytron homogeniser. The mixture was then centrifuged at 4° C. for 15 min at 20,000 g, and the supernatant was then decanted off and frozen in portions at −80° C., discarding the precipitate. The frozen supernatant was subsequently thawed for the assay and pipetted out onto a microtitre plate.
96-well MTPs with a well capacity of <250 μl were used.
Once pipetting was complete, a lid was placed on this MTP (assay MTP) and incubation performed at 25° C. (room temperature [RT]) for 5-60 min, depending on the quantity and activity of the enzyme used (see in this connection Table 1). […]

[1] = test system: formaldehyde-induced nociception; test: Formaldehyde test (rat), second phase; format: in vivo; conditions: iv, male Sprague-Dawley rats, second (late) phase of formaldehyde test, pain rate change relative to control
Experimental: The investigations for determining the antinociceptive action of the compounds used according to the invention of the general formula II were carried out by the formaldehyde test on male rats (Sprague-Dawley, 150-170 g, Charles River).
In the formaldehyde test, a distinction is drawn between the first (early) phase (0-15 min after formaldehyde injection) and the second (later) phase (15-60 min after formaldehyde injection), as described in D. Dubuisson, S. G. Dennis, Pain 4, 161-174 (1977). […]
A nociceptive reaction was induced in the freely mobile test animals by a single, subcutaneous formaldehyde injection (50 μl, 5 wt. %) into the dorsal side of the rear hind paw, the reaction being classed according to one of the following behavioural parameters: lifting and holding up the affected paw (score 1), shaking or twitching (score 2), licking and biting (score 3). The differential behaviour induced by the formaldehyde injection was recorded by observing the rats in the late phase of the formaldehyde test and assigned a variable weighting in the evaluation. Normal behaviour, in which the rat places an even load on all four paws, was recorded as a score of 0. […] The nociceptive behaviour was calculated as a “pain rate” (PR). […]
The analgesic action of the compounds of the general formula II used according to the invention was determined as described above.

CC1=CC2=NCC(C(=O)c3ccc(Br)cc3)CN2C=C1 (stereo not drawn) [Example 3, 3-(4′-Bromobenzoyl)-3,4-dihydro-2H-8-methylpyrido[1,2-a]pyrimidinium perchlorate]
IC50 (NO synthase): 14 µM

CC1=CC2=NCC(C(=O)c3ccccc3)CN2C=C1 (stereo not drawn) [Example 5, 3-Benzoyl-3,4-dihydro-2H-8-methylpyrido[1,2-a]pyrimidinium perchlorate]
IC50 (NO synthase): 9.1 µM

CC1=CC=CC2=NCC(C(=O)c3ccc(-c4ccccc4)cc3)CN12 (stereo not drawn) [Example 9, 3-(4′-Biphenylcarbonyl)-3,4-dihydro-2H-6-methylpyrido[1,2-a]pyrimidinium perchlorate]
IC50 (NO synthase): 7.6 µM

CC1=CC2=NCC(C(=O)c3ccc(Cl)cc3)CN2C=C1 (stereo not drawn) [Example 7, 3-(4′-Chlorobenzoyl)-3,4-dihydro-2H-8-methylpyrido[1,2-a]pyrimidinium perchlorate]
IC50 (NO synthase): 6.4 µM

CC1=CC2=NCC(C(=O)c3ccc(-c4ccccc4)cc3)CN2C=C1 (stereo not drawn) (as salt: perchlorate) [Example 8, 3-(4′-Biphenylcarbonyl)-3,4-dihydro-2H-8-methylpyrido[1,2-a]pyrimidinium perchlorate]
melting point: 111 °C

CC1=CC2=NCC(C(=O)c3ccccc3)CN2C(C)=C1 (stereo not drawn) [Example 6, 3-Benzoyl-3,4-dihydro-2H-6,8-dimethylpyrido[1,2-a]pyrimidinium perchlorate]
IC50 (NO synthase): 8.4 µM

CC1=CC2=NCC(C(=O)c3ccc(-c4ccccc4)cc3)CN2C=C1 (stereo not drawn) [Example 8, 3-(4′-Biphenylcarbonyl)-3,4-dihydro-2H-8-methylpyrido[1,2-a]pyrimidinium perchlorate]
IC50 (NO synthase): 13 µM

CC1=CC2=NCC(C(=O)c3ccc4ccccc4c3)CN2C=C1 (stereo not drawn) [Example 1, 3-(2′-Naphthoyl)-3,4-dihydro-2H-8-methylpyrido[1,2-a]pyrimidinium perchlorate]
IC50 (NO synthase): 1.4 µM
ED50 [1]: 7.27 mg/kg

CC1=CC2=NCC(C(=O)c3ccccc3)CN2C(C)=C1 (stereo not drawn) (as salt: perchlorate) [Example 6, 3-Benzoyl-3,4-dihydro-2H-6,8-dimethylpyrido[1,2-a]pyrimidinium perchlorate]
melting point: 78 °C

CC1=CC2=NCC(C(=O)c3ccc(Cl)cc3)CN2C=C1 (stereo not drawn) (as salt: perchlorate) [Example 7, 3-(4′-Chlorobenzoyl)-3,4-dihydro-2H-8-methylpyrido[1,2-a]pyrimidinium perchlorate]
melting point: 123 to 125 °C

CC1=CC2=NCC(C(=O)c3ccc(Br)cc3)CN2C=C1 (stereo not drawn) (as salt: perchlorate) [Example 3, 3-(4′-Bromobenzoyl)-3,4-dihydro-2H-8-methylpyrido[1,2-a]pyrimidinium perchlorate]
melting point: 158 to 161 °C

CC1=CC2=NCC(C(=O)c3ccc(F)cc3)CN2C=C1 (stereo not drawn) [Example 4, 3-(4′-Fluorobenzoyl)-3,4-dihydro-2H-8-methylpyrido[1,2-a]pyrimidinium perchlorate]
IC50 (NO synthase): 8.5 µM

CC1=CC2=NCC(C(=O)c3ccccc3)CN2C=C1 (stereo not drawn) (as salt: perchlorate) [Example 5, 3-Benzoyl-3,4-dihydro-2H-8-methylpyrido[1,2-a]pyrimidinium perchlorate]
melting point: > 290 °C

CC1=CC2=NCC(C(=O)c3ccc4ccccc4c3)CN2C(C)=C1 (stereo not drawn) [Example 2, 3-(2′-Naphthoyl)-3,4-dihydro-2H-6,8-dimethylpyrido[1,2-a]pyrimidinium perchlorate]
IC50 (NO synthase): 6.7 µM
